Literature values as cited in patent US20250228849A1, “FORMULATION AND MANUFACTURING PROCESS OF LIQUID FORMULATION OF RILPIVIRINE” (Aptorum Therapeutics Limited, priority 2024, published 2025).
Read-outs that look alike come from different tables or passages of the source.

Key:
[1] = hydrochloride salt form
[2] = pyrimidine nitrogen

## Cc1cc(C=CC#N)cc(C)c1Nc1ccnc(Nc2ccc(C#N)cc2)n1.Cl [Rilpivirine hydrochloride, 4-[[4-[[4-(2-cyanovinyl)-2,6-dimethylphenyl]amino]pyrimidin-2-yl]amino]benzonitrile hydrochloride]
In DMSO
  solubility: moderately soluble
In ethanol
  solubility: moderately soluble
In methanol
  solubility: moderately soluble
In water
  solubility: merely sparing solubility
[1]
  BCS class: BCS Class II
[2]
  pKa: approximately 5.6

## Cc1cc(/C=C/C#N)cc(C)c1Nc1ccnc(Nc2ccc(C#N)cc2)n1 [rilpivirine]
In water
  solubility: low aqueous solubility
